Data: the supplement of paper PMC10307832

Experiments:
Experiment in all cases: relative viability (nuclei count vs DMSO), 5 days (fraction); higher = more cells survive
NCI-H1651 = details: first compound 0.1 µM
How it was run: (§1)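 After 5 days of treatment, lung cancer cells in 1536-well plates were fixed and stained in a single step (final 0.05% Triton X-100, 1% formaldehyde, 1 ug/ml Hoechst) and their nuclei counted on 4× images. Treatment had been applied by pin tool the day after seeding as one drug alone or as a fixed anchor-drug dose with five library-drug doses (not always all listed) in √10 steps. Relative viability is the nuclei count of treated wells divided by that of vehicle wells, and values are medians of duplicate plates.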

NCI-H358 = test system: NCI-H358
How it was run: as §1

NCI-H3122 = test system: NCI-H3122
How it was run: as §1

NCI-H1755 = test system: NCI-H1755
How it was run: as §1

HCC-78 = test system: HCC-78
How it was run: as §1

NCI-H2087 = test system: NCI-H2087
How it was run: as §1

NCI-H460 = test system: NCI-H460
How it was run: as §1

NCI-H1793 = test system: NCI-H1793
How it was run: as §1

PC-3 [JPC-3] = test system: PC-3 [JPC-3]
How it was run: as §1

NCI-H522 = test system: NCI-H522
How it was run: as §1

HARA = test system: HARA
How it was run: as §1

NCI-H322M = test system: NCI-H322M
How it was run: as §1

## Cc1cn(-c2cc(NC(=O)c3ccc(C)c(Nc4nccc(-c5cccnc5)n4)c3)cc(C(F)(F)F)c2)cn1 [Nilotinib] + Nc1ncn([C@H]2C[C@H](O)[C@@H](CO)O2)c(=O)n1 [Decitabine] (partner 2 µM)
NCI-H1651
  relative viability: 0.288
NCI-H358; first compound 0.001 µM
  relative viability: 0.214
NCI-H358; first compound 0.003162 µM
  relative viability: 0.264
NCI-H358; first compound 0.01 µM
  relative viability: 0.229
NCI-H358; first compound 0.03162 µM
  relative viability: 0.195
NCI-H358; first compound 0.1 µM
  relative viability: 0.15
NCI-H3122; first compound 0.001 µM
  relative viability: 0.504
NCI-H3122; first compound 0.003162 µM
  relative viability: 0.468
NCI-H3122; first compound 0.01 µM
  relative viability: 0.505
NCI-H3122; first compound 0.03162 µM
  relative viability: 0.471
NCI-H3122; first compound 0.1 µM
  relative viability: 0.314
NCI-H1755; first compound 0.001 µM
  relative viability: 0.742
NCI-H1755; first compound 0.003162 µM
  relative viability: 0.81
NCI-H1755; first compound 0.01 µM
  relative viability: 0.78
NCI-H1755; first compound 0.03162 µM
  relative viability: 0.961
NCI-H1755; first compound 0.1 µM
  relative viability: 0.846
HCC-78; first compound 0.001 µM
  relative viability: 0.702
HCC-78; first compound 0.003162 µM
  relative viability: 0.576
HCC-78; first compound 0.01 µM
  relative viability: 0.666
HCC-78; first compound 0.03162 µM
  relative viability: 0.669
HCC-78; first compound 0.1 µM
  relative viability: 0.658
NCI-H2087; first compound 0.001 µM
  relative viability: 0.202
NCI-H2087; first compound 0.003162 µM
  relative viability: 0.244
NCI-H2087; first compound 0.01 µM
  relative viability: 0.261
NCI-H2087; first compound 0.03162 µM
  relative viability: 0.18
NCI-H2087; first compound 0.1 µM
  relative viability: 0.131
NCI-H460; first compound 0.001 µM
  relative viability: 0.443
NCI-H460; first compound 0.003162 µM
  relative viability: 0.648
NCI-H460; first compound 0.01 µM
  relative viability: 0.56
NCI-H460; first compound 0.03162 µM
  relative viability: 0.325
NCI-H460; first compound 0.1 µM
  relative viability: 0.306
NCI-H1793; first compound 0.001 µM
  relative viability: 0.49
NCI-H1793; first compound 0.003162 µM
  relative viability: 0.263
NCI-H1793; first compound 0.01 µM
  relative viability: 0.87
NCI-H1793; first compound 0.03162 µM
  relative viability: 0.708
NCI-H1793; first compound 0.1 µM
  relative viability: 0.516
PC-3 [JPC-3]; first compound 0.001 µM
  relative viability: 0.873
PC-3 [JPC-3]; first compound 0.01 µM
  relative viability: 1
PC-3 [JPC-3]; first compound 0.03162 µM
  relative viability: 0.897
PC-3 [JPC-3]; first compound 0.1 µM
  relative viability: 1.01
NCI-H522; first compound 0.01 µM
  relative viability: 0.667
NCI-H522; first compound 0.03162 µM
  relative viability: 0.699
NCI-H522; first compound 0.1 µM
  relative viability: 0.539
HARA; first compound 0.001 µM
  relative viability: 0.383
HARA; first compound 0.003162 µM
  relative viability: 0.681
HARA; first compound 0.01 µM
  relative viability: 0.856
HARA; first compound 0.03162 µM
  relative viability: 0.47
HARA; first compound 0.1 µM
  relative viability: 0.649
NCI-H322M; first compound 0.001 µM
  relative viability: 0.724
NCI-H322M; first compound 0.003162 µM
  relative viability: 0.786
NCI-H322M; first compound 0.01 µM
  relative viability: 0.673
NCI-H322M; first compound 0.03162 µM
  relative viability: 0.654
NCI-H322M; first compound 0.1 µM
  relative viability: 0.898
